Data published in US12702131B2, “Synergistic agrochemical combination” (UPL LIMITED, priority 2020, dated 2026).

Key:
Assay type in all cases: in vivo
Settings in all cases: Glufosinate 3000 ml/ha, Triacontanol 500 ml/ha
[1] = test system: AMASP (Amaranthus spinosus); assay: Field trial, weed control in papaya orchard, AMASP
Procedure: (§1) Field trials were carried out to test the synergy of the combination Glufosinate and Triacontanol. The field trials were carried out at Murari, A.P. The percentage efficacy was calculated after 15, 25 and 30 days of applications. The application was in the open space among the plants in a Papaya orchard and the results are recorded in the table below:—
(§2) TRTPO—Trianthema portulacastrum, COMBE—Commelina benghalensis, AMASP—Amaranthus spinosus, PTNHY—Parthenium hysterophorus, 1CRGG—Corchorus, DIMRE—Dinebra retroflexa, CYNDH—Cynodon dactylon, CYPRO—Cyperus rotundus, EPHHL—Euphorbia heterophylla

[2] = test system: PANRP (Brachiaria reptans); assay: Field trial, weed control in papaya orchard, PANRP
Procedure: as §1

[3] = test system: TRTPO (Trianthema portulacastrum); assay: Field trial, weed control in papaya orchard, TRTPO
Procedure: as §1, §2

[4] = test system: EPHHL (Euphorbia heterophylla); assay: Field trial, weed control in papaya orchard, EPHHL
Procedure: as §1, §2

[5] = test system: DIMRE (Dinebra retroflexa); assay: Field trial, weed control in papaya orchard, DIMRE
Procedure: as §1, §2

[6] = test system: COMBE (Commelina benghalensis); assay: Field trial, weed control in papaya orchard, COMBE
Procedure: as §1, §2

CYNDH (Cynodon dactylon) = assay: Field trial, weed control in papaya orchard, CYNDH
Procedure: as §1, §2

CYPRO (Cyperus rotundus) = assay: Field trial, weed control in papaya orchard, CYPRO
Procedure: as §1, §2

1CRGG (Corchorus) = assay: Field trial, weed control in papaya orchard, 1CRGG
Procedure: as §1, §2

[7] = test system: PTNHY (Parthenium hysterophorus); assay: Field trial, weed control in papaya orchard, PTNHY
Procedure: as §1, §2

CP(=O)(O)CCC(N)C(=O)O (centres unmarked) [Glufosinate]
% Weed control at 30 DAA AMASP [1]: 73%
% Weed control at 15 DAA ([2]; 15 DAA): 85%
% Weed control at 25 DAA ([2]; 25 DAA): 65%
% Weed control at 30 DAA TRTPO [3]: 81%
% Weed control at 30 DAA EPHHL [4]: 80%
% Weed control at 30 DAA DIMRE [5]: 62%
% Weed control at 30 DAA COMBE [6]: 47%
% Weed control at 30 DAA CYNDH (CYNDH (Cynodon dactylon)): 54%
% Weed control at 30 DAA CYPRO (CYPRO (Cyperus rotundus)): 11%
% Weed control at 30 DAA 1CRGG (1CRGG (Corchorus)): 69%
% Weed control at 30 DAA PTNHY [7]: 96%
